Results: US4848349A, “Substance and method for measuring hepatic blood flow” (priority 1987, dated 1989)

Assays:
Format in all cases: in vivo
[1] = Liver blood flow measurement by plasma elimination of injected FITC-GC; details: 9 kg dog
Method: The use of FITC bile acid for measuring liver blood flow has been tested in a dog. The following experimental protocol was followed.
15 μmoles of FITC-labelled glycocholic bile acid (FITC-GC) in 2 ml normal saline were injected into a 9 kg dog. Serial blood samples were taken into heparinized containers at 2, 4, 6, 8, and 10 minutes following the initial injection. The samples were then centrifuged for 5 minutes and the plasma collected. The concentration of FITC-GC in each plasma sample was measured with a PERKIN-ELMERS* spectrophlourimeter, using a previously determined calibration curve for FITC-GC solutions in plasma.
Therefore plasma clearance was calculated as [formula] M-amount of material injected and k=const. (k=1 for 100% extraction, 0.9 for 90% extraction), thus [formula] where [formula] is the slope of the line for concentration vs. time plot on a semi-log paper, and Co is the initial concentration (log Co is determined as an intercept of the plot with the concentration axis). For the purpose of calculating plasma clearance, k was assumed to equal 0.9.
Liver blood flow was then calculated from the plasma clearance value using the previously determined blood hematocrit (Htc) value as follows: [formula]

rats = assay: Effects on bile flow, sinusoidal blood flow, blood pressure and heart rate (rats); details: compared with equimolar amounts of sodium glycocholate
[2] = Biliary excretion after intraduodenal injection (enterohepatic circulation)
Method: In another group of experiments, FITC-GC was injected intraduodenally and bile samples collected for a period of two hours. More than 90% of the injected conjugate was excreted in the bile. […] It is these characteristics of fluoresceintly labelled bile acids which make them valuable as diagnostic agents and research tools.

hamsters = assay: Effects on bile flow, sinusoidal blood flow, blood pressure and heart rate (hamsters); details: compared with equimolar amounts of sodium glycocholate

C[C@H](CCC(=O)NCC(=O)O)[C@H]1CC[C@H]2[C@@H]3[C@H](O)C[C@@H]4C[C@H](OC(=S)Nc5ccc6c(c5)C5(OC6=O)c6ccc(O)cc6Oc6cc(O)ccc65)CC[C@]4(C)[C@H]3C[C@H](O)[C@]12C [FITC-GC, fluorescein isothiocyanate-sodium glycocholate]
liver blood flow ([1]; 15 μmoles FITC-GC injected in 2 ml normal saline, samples at 2-10 minutes, k assumed 0.9, corrected for hematocrit): 194 mL/min | concentration values in plasma serial samples (decline) ([1]; 15 μmoles injected, 2, 4, 6, 8 and 10 minutes): monoexponential decline | effect on bile flow (rats): the same effects | effect on blood pressure (rats): the same effects | effect on heart rate (rats): the same effects | effect on sinusoidal blood flow (rats): the same effects | dose excreted at 2 h ([2]; injected intraduodenally, bile collected for two hours, read-out: injected conjugate excreted in the bile): > 90% | enterohepatic circulation ([2]; intraduodenal injection and reinjection of bile): undergoes an enterohepatic circulation | elimination of the injected conjugate via bile after reinjection of collected bile ([2]; reinjection into the duodenum of the bile collected): almost complete elimination | effect on bile flow (hamsters): the same effects | effect on blood pressure (hamsters): the same effects | effect on heart rate (hamsters): the same effects | effect on sinusoidal blood flow (hamsters): the same effects
